Measured values reported in US20250059182A1, “SOS1 INHIBITORS” (Mirati Therapeutics, Inc., priority 2021, published 2025).

Legend:
pERK in MKN1 cells = assay: pERK inhibition, In-Cell Western (LI-COR Odyssey), MKN1 cells; type: cell-based; conditions: Homo sapiens, MKN-1, Table B; MKN1 or H358 cells (table does not say which); 0.5-1 hour incubation; read-out: IC50 (nM), pERK inhibition
Method in brief: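 MKN1 cells were exposed for about 0.5–1 h at 37 °C to nine 3-fold dilutions starting at 10 µM. Cells were then fixed in formaldehyde, permeabilised with methanol, and immunostained for pERK and GAPDH with near-infrared secondary antibodies. GAPDH-normalised pERK signal relative to vehicle gave % inhibition, from which IC50 was fitted.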

[1] = target: T1, recombinant human SOS1 polypeptide (amino acids 560-1049) (Homo sapiens, UniProt Q07889); assay: HTRF displacement assay: inhibition of labeled tracer binding to SOS1; conditions: Table A, Morrison equation for competitive binding
T1 construct: corresponding to amino acids 560-1049, expressed in E. Coli; made in house; host or cells: E. coli
T1 sequence (Q07889 560-1049): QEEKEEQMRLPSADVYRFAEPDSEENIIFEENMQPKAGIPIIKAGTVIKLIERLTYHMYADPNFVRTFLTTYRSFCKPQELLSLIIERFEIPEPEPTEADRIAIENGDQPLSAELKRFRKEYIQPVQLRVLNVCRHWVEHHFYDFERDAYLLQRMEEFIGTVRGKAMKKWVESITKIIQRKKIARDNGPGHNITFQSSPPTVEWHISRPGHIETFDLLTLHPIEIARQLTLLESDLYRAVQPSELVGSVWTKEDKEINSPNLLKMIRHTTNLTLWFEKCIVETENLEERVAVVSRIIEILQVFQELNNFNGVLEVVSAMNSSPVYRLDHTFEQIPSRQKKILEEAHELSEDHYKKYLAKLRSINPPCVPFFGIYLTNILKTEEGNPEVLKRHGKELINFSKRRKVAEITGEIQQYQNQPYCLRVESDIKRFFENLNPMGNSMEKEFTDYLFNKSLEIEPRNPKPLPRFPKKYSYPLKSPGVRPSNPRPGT

Row | SMILES | IC50 (pERK in MKN1 cells) | Ki [1]
1 | CCN1CC[C@H](N(C)c2cc3c(N[C@H](C)c4cccc(C#N)c4C)nnc(C)c3cn2)C1 [Example 1-89, 3-((R)-1-((7-(((S)-1-ethylpyrrolidin-3-yl)(methyl)amino)-4-methylpyrido[3,4-d]pyridazin-1-yl)amino)ethyl)-2-methylbenzonitrile] | 32.6 nM | 1.71 nM
2 | Cc1nnc(N[C@H](C)c2cccc(C(F)(F)F)c2F)c2cc(N(C)[C@@H]3CCCN(C)C3)ncc12 [Example 1-90, N^1-((R)-1-(2-fluoro-3-(trifluoromethyl)phenyl)ethyl)-N^7,4-dimethyl-N^7-((R)-1-methylpiperidin-3-yl)pyrido[3,4-d]pyridazine-1,7-diamine] | 102 nM | 0.453 nM
3 | COCCN(C)c1cc2c(N[C@H](C)c3cccc(C#N)c3C)nnc(C)c2cn1 [Example 1-91, (R)-3-(1-((7-((2-methoxyethyl)(methyl)amino)-4-methylpyrido[3,4-d]pyridazin-1-yl)amino)ethyl)-2-methylbenzonitrile] | 225 nM | 6.07 nM
4 | Cc1nnc(N[C@H](C)c2cc(N)cc(C(F)(F)F)c2F)c2cc(N3CC(C)(O)C3)ncc12 [Example 1-93, (R)-1-(1-((1-(5-amino-2-fluoro-3-(trifluoromethyl)phenyl)ethyl)amino)-4-methylpyrido[3,4-d]pyridazin-7-yl)-3-methylazetidin-3-ol] | 50.5 nM | 0.361 nM
5 | Cc1nnc(N[C@H](C)c2cc(N)cc(C(F)(F)F)c2F)c2cc(N3CC4CC(C3)O4)ncc12 [Example 1-94, N-((R)-1-(5-amino-2-fluoro-3-(trifluoromethyl)phenyl)ethyl)-7-(6-oxa-3-azabicyclo[3.1.1]heptan-3-yl)-4-methylpyrido[3,4-d]pyridazin-1-amine] | 15.4 nM | 0.264 nM
6 | Cc1nnc(N[C@H](C)c2cc(N)cc(C(F)(F)F)c2F)c2cc(N3CC4CC(C3)O4)ccc12 [Example 1-95, N-((R)-1-(5-amino-2-fluoro-3-(trifluoromethyl)phenyl)ethyl)-7-(6-oxa-3-azabicyclo[3.1.1]heptan-3-yl)-4-methylphthalazin-1-amine] | 19.8 nM | 0.31 nM
7 | Cc1nnc(N[C@H](C)c2ccc(C#N)cc2F)c2cc(N3C[C@H]4C[C@@H]3CO4)ncc12 [Example 1-96, 4-((R)-1-((7-((1R,4R)-2-oxa-5-azabicyclo[2.2.1]heptan-5-yl)-4-methylpyrido[3,4-d]pyridazin-1-yl)amino)ethyl)-3-fluorobenzonitrile] | 255 nM | 19.1 nM
8 | Cc1nnc(N[C@H](C)c2ccc(C#N)cc2F)c2cc(N3CCN4CCOC[C@@H]4C3)ncc12 [Example 1-97, 3-fluoro-4-((R)-1-((7-((S)-hexahydropyrazino[2,1-c][1,4]oxazin-8(1H)-yl)-4-methylpyrido[3,4-d]pyridazin-1-yl)amino)ethyl)benzonitrile] | 358 nM | 17.7 nM
9 | Cc1nnc(N[C@H](C)c2cccc3c2OCC3(F)F)c2cc(N3CC4(CN(C)C4)C3)ncc12 [Example 1-99, (R)-N-(1-(3,3-difluoro-2,3-dihydrobenzofuran-7-yl)ethyl)-4-methyl-7-(6-methyl-2,6-diazaspiro[3.3]heptan-2-yl)pyrido[3,4-d]pyridazin-1-amine] | 19.1 nM | 0.357 nM
10 | Cc1nnc(N[C@H](C)c2cccc3c2OCC3(F)F)c2cc(N3CCN(C)CC3)ncc12 [Example 1-100, (R)-N-(1-(3,3-difluoro-2,3-dihydrobenzofuran-7-yl)ethyl)-4-methyl-7-(4-methylpiperazin-1-yl)pyrido[3,4-d]pyridazin-1-amine] | 25.1 nM | 0.423 nM
11 | CCN1CCN(c2cc3c(N[C@H](C)c4cccc5c4OCC5(F)F)nnc(C)c3cn2)CC1 [Example 1-101, (R)-N-(1-(3,3-difluoro-2,3-dihydrobenzofuran-7-yl)ethyl)-7-(4-ethylpiperazin-1-yl)-4-methylpyrido[3,4-d]pyridazin-1-amine] | 26.2 nM | 0.326 nM
12 | Cc1c([C@@H](C)Nc2nnc(C)c3cnc(N4CCN(C)CC4)cc23)cc(N)nc1C(F)(F)F [Example 1-102, (R)-N-(1-(6-amino-3-methyl-2-(trifluoromethyl)pyridin-4-yl)ethyl)-4-methyl-7-(4-methylpiperazin-1-yl)pyrido[3,4-d]pyridazin-1-amine] | 37 nM | 2.18 nM
13 | CCN(c1cc2c(N[C@H](C)c3cccc(C#N)c3C)nnc(C)c2cn1)[C@@H]1CCN(C)C1 [Example 1-103, 3-((R)-1-((7-(ethyl((R)-1-methylpyrrolidin-3-yl)amino)-4-methylpyrido[3,4-d]pyridazin-1-yl)amino)ethyl)-2-methylbenzonitrile] | 48.4 nM | 1.1 nM
14 | Cc1c([C@@H](C)Nc2nnc(C)c3cnc(N4CCOCC4)cc23)cc(N)nc1C(F)(F)F [Example 1-105, (R)-N-(1-(6-amino-3-methyl-2-(trifluoromethyl)pyridin-4-yl)ethyl)-4-methyl-7-morpholinopyrido[3,4-d]pyridazin-1-amine] | 31.1 nM | 4.39 nM
15 | Cc1c([C@@H](C)Nc2nnc(C)c3cnc(N4C[C@H]5C[C@@H]4CO5)cc23)cc(N)nc1C(F)(F)F [Example 1-106, N-((R)-1-(6-amino-3-methyl-2-(trifluoromethyl)pyridin-4-yl)ethyl)-7-((1R,4R)-2-oxa-5-azabicyclo[2.2.1]heptan-5-yl)-4-methylpyrido[3,4-d]pyridazin-1-amine] | 128 nM | 7.3 nM
16 | Cc1c([C@@H](C)Nc2nnc(C)c3cnc(N4CC5(COC5)C4)cc23)cc(N)nc1C(F)(F)F [Example 1-107, (R)-N-(1-(6-amino-3-methyl-2-(trifluoromethyl)pyridin-4-yl)ethyl)-4-methyl-7-(2-oxa-6-azaspiro[3.3]heptan-6-yl)pyrido[3,4-d]pyridazin-1-amine] | 239 nM | 22.5 nM
17 | Cc1nnc(N[C@H](C)c2cccc3c2OCC3(F)F)c2cc(N3CCOCC3)ncc12 [Example 1-108, (R)-N-(1-(3,3-difluoro-2,3-dihydrobenzofuran-7-yl)ethyl)-4-methyl-7-morpholinopyrido[3,4-d]pyridazin-1-amine] | 35.7 nM | 2.31 nM
18 | Cc1nnc(N[C@H](C)c2cccc(C(C)(F)F)c2F)c2cc(N3CCN(C)CC3)ncc12 [Example 1-109, (R)-N-(1-(3-(1,1-difluoroethyl)-2-fluorophenyl)ethyl)-4-methyl-7-(4-methylpiperazin-1-yl)pyrido[3,4-d]pyridazin-1-amine] | 41.3 nM | 0.647 nM
19 | Cc1c(C#N)cccc1[C@@H](C)Nc1nnc(C)c2cnc(N3CCS(=O)(=O)CC3)cc12 [Example 1-110, (R)-3-(1-((7-(1,1-dioxidothiomorpholino)-4-methylpyrido[3,4-d]pyridazin-1-yl)amino)ethyl)-2-methylbenzonitrile] | 240 nM | 3.36 nM
20 | Cc1c([C@@H](C)Nc2nnc(C)c3ccc(N4CCOCC4)cc23)cc(N)nc1C(F)(F)F [Example 1-111, (R)-N-(1-(6-amino-3-methyl-2-(trifluoromethyl)pyridin-4-yl)ethyl)-4-methyl-7-morpholinophthalazin-1-amine] | 57.9 nM | 2.91 nM
